Laboratory results published in PubChem BioAssay (NCI).
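Abbreviation: GI50, concentration required for 50% inhibition of growth. TGI: concentration producing complete growth inhibition.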

What was measured:
Experiment in all cases: DTP human tumour cell line panel, 384-well format; in the data active = GI50 below about 0.43 µM; inactive = the rest
786-0 renal = system: 786-0 renal
A498 renal = system: A498 renal
A549 NSCLC = system: A549 NSCLC
ACHN renal = system: ACHN renal
BT-549 breast = system: BT-549 breast
CAKI-1 renal = system: CAKI-1 renal
CCRF-CEM leukemia = system: CCRF-CEM leukemia
COLO 205 colon = system: COLO 205 colon
DU-145 prostate = system: DU-145 prostate
HCC-2998 colon = system: HCC-2998 colon
HCT-116 colon = system: HCT-116 colon
HCT-15 colon = system: HCT-15 colon
HL-60(TB) leukemia = system: HL-60(TB) leukemia
HOP-62 NSCLC = system: HOP-62 NSCLC
HOP-92 NSCLC = system: HOP-92 NSCLC
HT29 colon = system: HT29 colon
IGROV1 ovarian = system: IGROV1 ovarian
K-562 leukemia = system: K-562 leukemia
KM12 colon = system: KM12 colon
LOX IMVI melanoma = system: LOX IMVI melanoma
M14 melanoma = system: M14 melanoma
MALME-3M melanoma = system: MALME-3M melanoma
MCF7 breast = system: MCF7 breast
MDA-MB-231 breast = system: MDA-MB-231 breast
MDA-MB-435 melanoma = system: MDA-MB-435 melanoma
MDA-MB-468 breast = system: MDA-MB-468 breast
MOLT-4 leukemia = system: MOLT-4 leukemia
NCI-H226 lung = system: NCI-H226 lung
NCI-H23 lung = system: NCI-H23 lung

Cc1c(S(C)(=O)=O)c(-c2cc(F)cc(N3CCN(c4ccc(NS(=O)(=O)c5ccc(N[C@H](CCN6CCC(C(=O)OCCCP(=O)(O)O)CC6)CSc6ccccc6)c(S(=O)(=O)C(F)(F)F)c5)cc4)CC3)c2)c(-c2ccc(Cl)cc2)n1C(C)C
15.6 µM: TGI (HCC-2998 colon)
0.178 µM: TGI (CCRF-CEM leukemia)
15 µM: TGI (MDA-MB-231 breast)
active: GI50 (CCRF-CEM leukemia) 0.0412 µM | GI50 (HCC-2998 colon) 0.425 µM | GI50 (HOP-92 NSCLC) 0.0429 µM | GI50 (MOLT-4 leukemia) 0.0152 µM
0.0362 µM: TGI (MOLT-4 leukemia)
> 100 µM: TGI (786-0 renal) | TGI (A498 renal) | TGI (A549 NSCLC) | TGI (ACHN renal) | TGI (BT-549 breast) | TGI (CAKI-1 renal) | TGI (COLO 205 colon) | TGI (DU-145 prostate) | TGI (HCT-116 colon) | TGI (HCT-15 colon) | TGI (HL-60(TB) leukemia) | TGI (HOP-62 NSCLC) | TGI (HT29 colon) | TGI (IGROV1 ovarian) | TGI (K-562 leukemia) | TGI (KM12 colon) | TGI (LOX IMVI melanoma) | TGI (M14 melanoma) | TGI (MALME-3M melanoma) | TGI (MCF7 breast) | TGI (MDA-MB-435 melanoma) | TGI (MDA-MB-468 breast) | TGI (NCI-H226 lung)
inactive: GI50 ([…]-0 renal) > 100 µM | GI50 (A498 renal) > 100 µM | GI50 (A549 NSCLC) > 100 µM | GI50 (ACHN renal) > 100 µM | GI50 (BT-549 breast) > 100 µM | GI50 (CAKI-1 renal) > 100 µM | GI50 (COLO 205 colon) > 100 µM | GI50 (DU-145 prostate) > 100 µM | GI50 (HCT-116 colon) > 100 µM | GI50 (HCT-15 colon) > 100 µM | GI50 (HL-60(TB) leukemia) > 100 µM | GI50 (HOP-62 NSCLC) > 100 µM | GI50 (HT29 colon) > 100 µM | GI50 (IGROV1 ovarian) > 100 µM | GI50 (K-562 leukemia) > 100 µM | GI50 (KM12 colon) > 100 µM | GI50 (LOX IMVI melanoma) > 100 µM | GI50 (M14 melanoma) > 100 µM | GI50 (MALME-3M melanoma) > 100 µM | GI50 (MCF7 breast) > 100 µM | GI50 (MDA-MB-231 breast) 0.945 µM | GI50 (MDA-MB-435 melanoma) > 100 µM | GI50 (MDA-MB-468 breast) 73.1 µM | GI50 (NCI-H226 lung) > 100 µM | GI50 (NCI-H23 lung) > 100 µM
0.739 µM: TGI (HOP-92 NSCLC)
